Measured values reported in patent publication US20100279962A1, “MONOSEBACATE OF PYRAZOLE DERIVATIVE” (KISSEI PHARMACEUTICAL CO., LTD., priority 2007, published 2010).

Tests used:
[1] = tested on: Male Wistar rats; test: Oral glucose tolerance test, combination effect with sulfonylureas; type: in vivo, rat; settings: for Plasma glucose concentration (mg/dL) Just before administration: fasted rats, baseline before oral dosing; for Plasma glucose concentration (mg/dL) Just before administration / Plasma glucose concentration (mg/dL) 1 hr after administration: mean ± standard error; for Plasma glucose concentration at 1 hr compared with the Control group (in words) / Plasma glucose concentration (mg/dL) 1 hr after administration: oral, monosebacate 0.03 mg/kg as free form, gliclazide 0.3 mg/kg, oral glucose load
Procedure: (§1) Male Wistar rats (Charles River Japan, Inc.) at 9 weeks of age, fasted about 16 hours (each group has 6 animals), were administrated orally in a volume of 2.5 mL/kg with distilled water and 0.1% methylcellulose solution in the Control group, with the monosebacate (0.03 mg/kg as the above compound (B) (free form)) dissolved in distilled water (hereinafter referred to as the “monosebacate solution”) and 0.1% methylcellulose solution in the Monosebacate alone group, with gliclazide (0.3 mg/kg as gliclazide) dissolved in 0.1% methylcellulose solution (hereinafter referred to as the “gliclazide solution”) and distilled water in the Gliclazide alone group and with the monosebacate solution and the gliclazide solution (0.03 mg/kg as the compound (B) and 0.3 mg/kg as gliclazide) in the Gliclazide combination group, respectively. Subsequently, 0.4 g/mL of glucose solution (5 mL/kg) was loaded orally. The blood was collected from tail vein before and 1 hr after administration of test substance, and the plasma glucose concentrations were measured using Glucose C-II test WAKO (Wako Pure Chemical Industries, Ltd.). The numerical values in the table represent mean value±standard error.

[2] = Storage stability test (purity by HPLC, deliquescence); type: physicochemical; settings: for Purity (%) Initial / Purity (%) After 2 months: HPLC; for Storage stability (in words): 2 months
Procedure: The crystals of the monosebacate in Example 1 and amorphous 3-(3-{4-[3-(β-D-glucopyranosyloxy)-5-isopropyl-1H-pyrazol-4-ylmethyl]-3-methylphenoxy} propylamino)-2,2-dimethylpropionamide (free form) as Comparative Example were stored under condition of 40° C./75% relative humidity or 60° C. in open vessels, existence or nonexistence of the deliquescence and the storage stability for 2 months were examined. […] Analytical conditions of HPLC are as follows.
Detector: ultraviolet-visible absorption spectrophotometer
Column: LUNA C18(2) (produced by Phenomenex), 5 μm, 4.6×250 mm, particle diameter 100×10^−10 m
Column Temperature: a constant temperature of around 25° C.
Sample concentration: 1 mg/mL
Mobile phase A: 10 mM dipotassium hydrogenphosphate aqueous solution adjusted to pH 7.8 with phosphoric acid
Mobile phase B: Acetonitrile
0-30 min: Mobile phase A/Mobile phase B=78/22, 30-50 min: Mobile phase A/Mobile phase B=78/22→30/70, 50-60 min: Mobile phase A/Mobile phase B=30/70
Range of area measurement: for 50 minutes from the start, except for the area of the peak of the blank solution

[3] = tested on: Male Wistar rats; test: Oral glucose tolerance test, combination effect with glinides; type: in vivo, rat; settings: for Plasma glucose concentration (mg/dL) Just before administration: fasted rats, baseline before oral dosing; for Plasma glucose concentration (mg/dL) Just before administration / Plasma glucose concentration (mg/dL) 1 hr after administration: mean ± standard error; for Plasma glucose concentration at 1 hr compared with the Control group (in words) / Plasma glucose concentration (mg/dL) 1 hr after administration: oral, monosebacate 0.03 mg/kg as free form, mitiglinide calcium hydrate 0.3 mg/kg, oral glucose load
Procedure: as §1
Instead of gliclazide in the Gliclazide alone group and the Gliclazide combination group, mitiglinide calcium hydrate (JAN) (0.3 mg/kg as mitiglinide calcium hydrate) was used (hereinafter referred to as the “Mitiglinide alone group” and the “Mitiglinide combination group”, respectively), and the plasma glucose concentrations were measured in the same way as the above method (1). The numerical values in the table represent mean value±standard error.

[4] = 40° C./75% relative humidity storage test
[5] = 60° C. in open vessels storage test
[6] = stored at 40° C./75% relative humidity for 2 months
[7] = stored at 60° C. in open vessels for 2 months

Molecule | Plasma glucose concentration (mg/dL) Just before administration [1] | Plasma glucose concentration at 1 hr compared with the Control group (in words) [1] | Plasma glucose concentration (mg/dL) 1 hr after administration [1] | Deliquescence ([2]; 40° C./75% relative humidity) | Purity (%) Initial [2, 4] | Storage stability (in words) ([2]; 40° C./75% relative humidity) | Deliquescence ([2]; 40° C./75% relative humidity, listed as free form) | Purity (%) Initial [2, 5] | Storage stability (in words) ([2]; 60° C. in open vessels) | Purity (%) After 2 months [2, 6] | Purity (%) After 2 months [2, 7] | Plasma glucose concentration (mg/dL) Just before administration [3] | Plasma glucose concentration at 1 hr compared with the Control group (in words) [3] | Plasma glucose concentration (mg/dL) 1 hr after administration [3]
Cc1ccc(S(=O)(=O)NC(=O)NN2CC3CCCC3C2)cc1 (stereo not drawn) [Gliclazide, gliclazide] | 80.7 ± 6.7 mg/dL | lower plasma glucose concentrations | 136.5 ± 6.7 mg/dL | – | – | – | – | – | – | – | – | – | – | –
Cc1cc(OCCCNCC(C)(C)C(N)=O)ccc1Cc1c(O[C@@H]2O[C@H](CO)[C@@H](O)[C@H](O)[C@H]2O)n[nH]c1C(C)C [Comparative Example, 3-(3-{4-[3-(β-D-glucopyranosyloxy)-5-isopropyl-1H-pyrazol-4-ylmethyl]-3-methylphenoxy}propylamino)-2,2-dimethylpropionamide] | – | – | – | Yes | 98.7% | decrease in the purity | deliquescence from the initial of the experiment | 98.7% | remarkable decrease in the purity due to the decomposition | 97.0% | 95.3% | – | – | –
O=C(O)[C@H](CC(=O)N1C[C@H]2CCCC[C@H]2C1)Cc1ccccc1 [Mitiglinide, mitiglinide calcium hydrate] | – | – | – | – | – | – | – | – | – | – | – | 85.8 ± 1.7 mg/dL | lower plasma glucose concentrations | 119.1 ± 5.8 mg/dL
Bis[3-(3-{4-[3-(β-D-glucopyranosyloxy)-5-isopropyl-1H-pyrazol-4-ylmethyl]-3-methylphenoxy}propylamino)-2,2-dimethylpropionamide] monosebacate [Example 1] | 81.6 ± 3.1 mg/dL | lower plasma glucose concentrations | 127.6 ± 3.8 mg/dL | Nil | 99.6% | excellent storage stability | – | 99.6% | almost no decrease in the purity | 99.5% | 99.2% | 83.8 ± 1.8 mg/dL | lower plasma glucose concentrations | 141.3 ± 5.6 mg/dL
